In patent US10676429B2, “Sulfamoyl-arylamides and the use thereof as medicaments for the treatment of hepatitis B” (priority 2012, dated 2020):

Columns and labels:
HBV [1] = test: Anti-HBV activity in HepG2.117 cell line (Tet-off, intracellular HBV DNA, realtime PCR); type: cell-based; conditions: HepG2.117 cells, 3 days of treatment, intracellular HBV DNA, read-out: HepG2 117 EC50
[2] = Cytotoxicity in HepG2 cells, 4 days, Resazurin assay; conditions: human, HepG2 cells
HBV [3] = test: Anti-HBV activity in stable transfected HepG2.2.15 cell line (HBV DNA from secreted virions, realtime PCR); type: cell-based; conditions: HepG2.2.15 cells, 6 days of treatment, secreted virion HBV DNA, read-out: HepG2 2.15 EC50
[4] = Hepatitis B virus, HepG2.117, 72 h

| SMILES | EC50 (HBV [1]; [4]) [nM] | CC50 at 4 days [2] [nM] | EC50 (HBV [3]; Hepatitis B virus, HepG2.2.15, 144 h) [nM] | EC50 (HBV [1]) [nM] | EC50 (HBV [3]) [nM] |
| --- | --- | --- | --- | --- | --- |
| CC1(NS(=O)(=O)c2ccc(Br)c(C(=O)Nc3ccc(F)c(C(F)(F)F)c3)c2F)COC1 [Compound 215] | > 1000 | > 25000 | – | – | – |
| Cc1ccc(S(=O)(=O)NC(C)(C)C)c(F)c1C(=O)Nc1ccc(F)c(F)c1 [Compound 206] | 640 | > 25000 | – | – | – |
| Cc1ccc(S(=O)(=O)N[C@H](C)C(F)(F)F)c(F)c1C(=O)Nc1cc(F)c(F)c(Cl)c1 [Compound 193] | 100 | 13500 | – | – | – |
| CC(C)NS(=O)(=O)c1ccc(F)c(C(=O)Nc2ccc(F)c(F)c2)c1F [Compound 202] | 110 | > 25000 | – | – | – |
| CC1(NS(=O)(=O)c2cccc(C(=O)Nc3ccc(F)cc3)c2)CCOCC1 [Compound 83] | 1230 | – | 1040 | – | – |
| Cc1cc(NC(=O)c2cccc(S(=O)(=O)NC3(C)CCOC3)c2)ccc1F (stereo not shown) [Compound 223] | 210 | > 25000 | – | – | – |
| O=C(Nc1ccccc1)c1csc(S(=O)(=O)NC2CCCCC2)n1 [Compound 64] | 7830 | > 25000 | – | – | – |
| CC1(NS(=O)(=O)c2ccc(F)c(C(=O)Nc3ccc(F)c(F)c3)c2Cl)COC1 [Compound 211] | 650 | > 25000 | – | – | – |
| CC1(NS(=O)(=O)c2ccc(Cl)c(C(=O)Nc3cc(F)c(F)c(Cl)c3)c2F)COC1 [Compound 210] | 460 | > 25000 | – | – | – |
| Cc1cc(NC(=O)c2c(Br)ccc(S(=O)(=O)NC3(C)COC3)c2F)cc(F)c1F [Compound 216] | 290 | > 25000 | – | – | – |
| COC(=O)N1CCCC(NS(=O)(=O)c2cccc(C(=O)Nc3ccc(F)c(C)c3)c2)C1 (racemic) [Compound 159b] | – | – | – | 230 | 160 |
| CC(C)NS(=O)(=O)c1ccc(F)c(C(=O)Nc2cccc(C(F)(F)F)c2)c1F [Compound 203] | 240 | 16700 | – | – | – |
| CC1(NS(=O)(=O)c2ccc(Br)c(C(=O)Nc3ccc(F)c(C#N)c3)c2F)COC1 [Compound 214] | > 1000 | > 25000 | – | – | – |
| COC(=O)N1CCCC(NS(=O)(=O)c2cccc(C(=O)Nc3ccc(F)c(C)c3)c2)C1 (racemic) [Compound 159a] | – | – | – | 860 | 170 |
| Cc1cc(NC(=O)c2cccc(S(=O)(=O)NC3CCCC(O)C3)c2)ccc1F (single isomer, unassigned) [Compound 134b, N-(4-fluoro-3-methyl-phenyl)-3-[[(1R,3S)-3-hydroxycyclohexyl]sulfamoyl]benzamide or N-(4-fluoro-3-methyl-phenyl)-3-[[(1S,3R)-3-hydroxycyclohexyl]sulfamoyl]benzamide] | – | – | – | 200 | 570 |
| Cc1cc(NC(=O)c2cccc(S(=O)(=O)NC3CCCC(O)C3)c2)ccc1F (single isomer, unassigned) [Compound 134a, N-(4-fluoro-3-methyl-phenyl)-3-[[(1R,3S)-3-hydroxycyclohexyl]sulfamoyl]benzamide or N-(4-fluoro-3-methyl-phenyl)-3-[[(1S,3R)-3-hydroxycyclohexyl]sulfamoyl]benzamide] | – | – | – | 720 | 660 |
| Cc1cc(NC(=O)c2cccc(S(=O)(=O)NC3CCCC(O)C3)c2)ccc1F (single isomer, unassigned) [Compound 134c, N-(4-fluoro-3-methyl-phenyl)-3-[[(1R,3R)-3 hydroxycyclohexyl]sulfamoyl]benzamide or N-(4-fluoro-3-methyl-phenyl)-3-[[(1S,3S)-3-hydroxycyclohexyl]sulfamoyl]benzamide] | – | – | – | 380 | 490 |
| Cc1cc(NC(=O)c2cccc(S(=O)(=O)NC3CC(=O)N(C)C3)c2)ccc1F (racemic) [Compound 179] | – | > 25000 | – | – | – |
| Cc1cc(NC(=O)c2cccc(S(=O)(=O)NC3CCCC(O)C3)c2)ccc1F (single isomer, unassigned) [Compound 134d, N-(4-fluoro-3-methyl-phenyl)-3-[[(1R,3R)-3 hydroxycyclohexyl]sulfamoyl]benzamide or N-(4-fluoro-3-methyl-phenyl)-3-[[(1S,3S)-3-hydroxycyclohexyl]sulfamoyl]benzamide] | – | – | – | 1220 | 250 |
